Tested on: EV-A71
Assay: Viral RNA quantification by RT-qPCR
Format: cell-based
Conditions: for decrease of extracellular viral RNA level: 25 μM, EV-A71 MOI 1 for 12 hours; for decrease of extracellular viral RNA level / decrease of viral RNA / viral RNA level (in words): RD cells; for decrease of viral RNA: 50 μM; for decrease of viral RNA / viral RNA level (in words): intracellular viral RNA; for viral RNA level (in words): indicated concentrations; for effect on viral RNA level: 8 μM
Method: FIGS. 7A-7D Ser78 phosphorylation-deficient Hsp27 inhibits EV-A71 replication and propagation (FIG. 7A) HEK 293T cells were transfected with 500 ng Hsp27 (WT, 3A, S15A, S78A, S82A) plasmids for 48 hours, and then infected with EV-A71 at an MOI of 10 for 9h. Intracellular viral RNA were extracted and quantified by qPCR. (FIG. 7B) HEK 293T cells were transfected with 500 ng Hsp27 (WT, 3D, S15D, S78D, S82D) plasmids for 48 hours, and then infected with EV-A71 at an MOI of 10 for 9h. Intracellular viral RNA were extracted and quantified by qPCR. (FIG. 7C) HEK 293T cells were transfected with 500 ng Hsp27 (WT, S78A, S78D) plasmids for 48 hours, and treated with 8 μM SB203580 2 hours before infection with EV-A71. (FIG. 7D) HEK 293T cells were transfected with 500 ng Hsp27 (WT, 3A, S15A, S78A, S82A) plasmids for 48 hours, and then infected with EV-A71 at an MOI of 10 for 12h. Viral titration was calculated by TCID50. Statistical analyses were carried out using Student's t-test. *: p<0.05, **: p<0.01, ***: p<0.001. Data are expressed as mean ±SD.
FIGS. 10A-10K. Peptide S78 inhibited EV-A71 replication and propagation. (FIG. 10A) RD cells were pre-treated with peptides S78 or for 2 hours and infected with EV-A71 at the MOI of 10 for 6 hours. Cell lysates were collected for western blot assay. Hsp27 phosphorylation on Ser 15, 78, 82 were detected by specific antibodies. β-Actin were detected as internal control. (FIG. 10B) Densitometric analysis of FIG. 9A. (FIG. 10C) HEK 293T cells were pre-treated with peptides S78 or S78A at the concentration of 25 μM for 2 hours and then co-transfected with Hsp27-WT plasmid (800 ng), pIRES reporter plasmid (200 ng) and 2A^pro-expressing plasmid or 2AC110A-expressing plasmid (200 ng) for 24 h, then the luciferase activity was measured. (FIG. 10D-10E) RD cells were treated with peptides S78 or S78A and then infected with EV-A71. EV-A71 VP1 were detected. (FIG. 10F) RD cells were treated with peptides and then infected with EV-A71 at the MOI of 1 for 12 hours. The EV-A71-induced CPE was captured. (FIG. 10G-10H) Intracellular viral RNA was extracted and quantified by qPCR. (FIG. 10I) Densitometric analysis FIG. 9D-E. (FIG. 10J) RD cells were treated with peptides S78 or and then infected with EV-A71 at the MOI of 1 for 12 hours. Extracellular viral RNA was extracted and quantified by qPCR. (FIG. 10K) Viral titration was calculated by TCID50. The Statistical analyses were carried out using Student's t-test. *: p<0.05, **: p<0.01, ***: p<0.001. Data are expressed as mean ±SD.
FIGS. 11A-11G Inhibition of EV-A71 Protein Translation and Viral Reproduction by peptide S82A. (FIG. 11A) HEK 293T cells were pre-treated with peptides NC, S78, S78A, S82A, or S78-3A at the concentration of 25 μM for 2 hours and then co-transfected with Hsp27-WT plasmid (800 ng), pIRES reporter plasmid (200 ng) and 2A^pro-expressing plasmid for 24 h, then the luciferase activity was measured. (FIG. 11B) RD cells were pre-treated with peptides NC at indicated concentrations for 2 hours and infected with EV-A71 at the MOI of 1 for 9 hours. Intracellular viral RNA was extracted and quantified by qPCR. (FIG. 11C-11E) RD cells were treated with peptides NC, S82A, or S78-3A at indicated concentrations for 2 hours and then infected with EV-A71 at the MOI of 1 for 9 hours. Cell lysates were collected for western blot assay. EV-A71 VP1 were detected. β-Actin was detected as an internal control. (FIG. 11F) Densitometric analysis of the EV-A71 VP1 level in FIG. S7C-E was quantified and normalized with β-Actin using ImageJ. (FIG. 11G) RD cells were treated with peptides S78, S78A, S82A, or S78-3A at the concentration of 25 μM for 2 hours and then infected with EV-A71 at the MOI of 0.1 for 24 hours. Viral titration was calculated. The Statistical analyses were carried out using Student's t-test. *: p<0.05, **: p<0.01, ***: p<0.001. Data are expressed as mean ±SD. […]

Question: Which “decrease of extracellular viral RNA level” value does the source give for Ac-RKKRRQRRRAYSRALSRQLSS-NH2 [S78] here?
Answer: The value was 800 folds.

Question: And the “decrease of viral RNA” value?
Answer: Its value is 82%.

Question: What about the “viral RNA level (in words)” value of the same molecule?
Answer: Its value is “dramatically reduced”.

Question: Ac-RKKRRQRRRAYSRALARQLSS-NH2 [S78A] was tested. Which “decrease of extracellular viral RNA level” value did it give?
Answer: Its value is 30 folds.

Question: And the “decrease of viral RNA” value?
Answer: The value was 46%.

Question: For `C[S+]([O-])c1ccc(-c2nc(-c3ccncc3)c(-c3ccc(F)cc3)[nH]2)cc1` (stereo not drawn) [SB203580, reference compound], which “decrease of viral RNA level” value (8 μM 2 hours before infection, Hsp27 over-expressing HEK 293T cells) is on record?
Answer: The value was 50%.

Question: And the “effect on viral RNA level” value (Hsp27 S78A-expressing HEK 293T cells)?
Answer: The value was “no obvious effects”.

Question: And the “effect on viral RNA level” value (Hsp27 S78D-expressing HEK 293T cells)?
Answer: Its value is “no obvious effects”.

Question: Which “viral RNA level (in words)” value does the source give for “Ac-RKKRRQRRRYSREANQPKPSPKRESGEE-NH2 [NC, reference compound]” here?
Answer: The value was “no effect”.
